Data set [1] has as its system human neuronal SH-SY5Y cells. The data set can be described thus: H2O2-induced neurotoxicity in SH-SY5Y cells (MTT). In kind it is cell-based. The note with it: 24 h pretreatment, MTT at 24 h. As to the method: FIG. 2A contains bar graphs showing the concentration-dependent neuroprotection of SH-SY5Y cells from H2O2-induced toxicity. Cell viability was measured using the MTT assay at 24 h. […] (B) Test compounds at 5 μM protected N2a cells against MPP+ (100 μM) insult. Cell viability was measured at 24 h using Presto-Blue assay.
(§1) II-ING-6 and II-ING-66, were tested in neuronal cell lines subjected to H2O2 and MPP+-induced toxicity (Parkinson's disease model), and in a composite model of ischemia-reperfusion injury: oxygen glucose deprivation (OGD). In H2O2-induced neurotoxicity in human neuronal SH-SY5Y cells, neuroprotective properties of compounds II-ING-6 and II-ING-66 were assessed using 24 h pretreatment regimen (FIG. 2A). […] Neuroprotection against OGD is expected to be mediated by HIF-1α and Nrf2. In this assay, after pretreatment of cells 24 h prior to OGD insult, both compounds were neuroprotective (FIG. 3A).

A further data set concerns mouse neuronal N2a cells. The data set can be described thus: MPP+ neurotoxicity in N2a cells (Presto-Blue). In kind it is cell-based. Conditions: 5 μM compound, MPP+ 100 μM, 24 h. As to the method:
FIG. 2B contains bar graphs showing test compounds at 5 μM protected N2a cells against MPP+(100 μM) insult. Cell viability was measured at 24 h using Presto-Blue assay.
as §1

A further data set relates to SH-SY5Y cells. The data set can be described thus: Oxygen glucose deprivation (OGD) in SH-SY5Y cells (MTT). In kind it is cell-based, human. The note with it: for Neuroprotection against OGD, pretreatment: pretreatment 24 h prior to OGD insult; for Neuroprotection against OGD, post-treatment: treatment after OGD. As to the method:
FIG. 3A contains bar graphs showing a concentration dependence of II-ING-6 and II-ING-66 neuroprotection in SH-SY5Y cells subject to OGD: 24 h pretreatment.
FIG. 3B contains bar graphs showing concentration dependencies of II-ING-6 and II-ING-66 neuroprotection in SH-SY5Y cells subject to OGD: treatment post OGD. Cell viability was measured using the MTT assay 24 h post insult.
as §1

A short description of data set [2]: liver-on-a-chip assay, viability of HepaRG hepatocytes by MTT. In kind it is cell-based. The note with it: human, HepaRG hepatocytes in liver-on-a-chip, read-out: LC50.
In the next data set the test system is Nrf2 target genes. Put plainly: In vivo activation of Nrf2 pathway (RT-PCR of target genes). The note with it: 3 month old male C57BL/6 mice, 25 mg/kg i.p. As to the method: The expression of Nrf2 target genes was assessed in 3 month old male C57BL/6 mice administered with II-ING-66 (25 mg/kg i.p.). […] These in vivo data support the in vitro observations of HIF-1α and Nrf2 activation by phenylhydroxamate HDAC inhibitors (Gaisina et al, ACS Chem. Neurosci. 2017).

For a further data set, the target named is T1, HDAC7 (Homo sapiens, UniProt Q8WUI4).
T1 sequence (Q8WUI4 1-952): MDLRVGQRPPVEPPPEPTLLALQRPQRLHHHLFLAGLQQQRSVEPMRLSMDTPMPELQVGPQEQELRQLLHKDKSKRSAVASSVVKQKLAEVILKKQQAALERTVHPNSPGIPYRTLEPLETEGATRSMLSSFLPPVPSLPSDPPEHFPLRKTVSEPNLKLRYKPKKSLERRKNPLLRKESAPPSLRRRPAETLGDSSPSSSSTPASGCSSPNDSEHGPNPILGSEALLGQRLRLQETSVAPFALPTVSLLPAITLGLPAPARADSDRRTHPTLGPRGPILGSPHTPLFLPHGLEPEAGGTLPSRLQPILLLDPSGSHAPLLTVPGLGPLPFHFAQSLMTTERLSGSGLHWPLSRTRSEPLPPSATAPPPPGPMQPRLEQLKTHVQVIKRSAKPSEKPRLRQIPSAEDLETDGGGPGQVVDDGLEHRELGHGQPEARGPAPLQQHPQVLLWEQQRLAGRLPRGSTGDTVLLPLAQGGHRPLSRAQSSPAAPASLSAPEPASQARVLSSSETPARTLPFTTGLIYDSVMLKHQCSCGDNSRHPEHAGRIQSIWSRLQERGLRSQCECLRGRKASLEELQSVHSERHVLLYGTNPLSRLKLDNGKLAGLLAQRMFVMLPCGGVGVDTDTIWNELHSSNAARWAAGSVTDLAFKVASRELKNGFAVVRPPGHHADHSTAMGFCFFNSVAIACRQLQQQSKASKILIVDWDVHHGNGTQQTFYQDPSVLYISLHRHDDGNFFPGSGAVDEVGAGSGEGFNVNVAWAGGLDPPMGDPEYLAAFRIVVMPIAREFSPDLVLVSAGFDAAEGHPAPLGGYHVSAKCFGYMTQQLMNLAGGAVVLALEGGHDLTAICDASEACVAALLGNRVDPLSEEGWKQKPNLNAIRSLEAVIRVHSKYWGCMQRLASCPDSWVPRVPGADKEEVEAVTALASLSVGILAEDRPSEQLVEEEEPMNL
The data set can be described thus: HDAC7 isoform selectivity assay. In kind it is biochemical. Conditions: Table 2 isoform selectivity; read-out: HDAC Inhibition (IC50 uM) isoform 7. As to the method: The HDAC1, 2, 4, 5, 6, 7, 8, 9, 10, and 11 assays used isolated recombinant human protein; HDAC3/NcoR2 complex was used for the HDAC3 assay. Substrate for HDAC1, 2, 3, 6, 10, and 11 assays is a fluorogenic peptide from p53 residues 379-382 (RHKKAc); substrate for HDAC8 is fluorogenic diacyl peptide based on residues 379-382 of p53 (RHKAcKAc). Acetyl-Lys(trifluoroacetyl)-AMC substrate was used for HDAC4, 5, 7, and 9 assays. Compounds were dissolved in DMSO and tested in 10-dose IC50 mode with 3-fold serial dilution starting at 30 μM. Control Compound Trichostatin A (TSA) was tested in a 10-dose IC50 with 3-fold serial dilution starting at 5 μM. IC50 values were extracted by curve-fitting the dose/response slopes. Assays were performed in duplicate and IC50 values are an average of data from both experiments.

Data set [3] concerns TA98-S9, TA100-S9, TA1535-59, and TA1537-59. Put plainly: Ames test (genetic toxicity). More on the design: species or system bacterium. Conditions: concentrations of 0.6-100 μM. As to the method: Compound II-ING-6 was tested in genetic toxicity assays to assess the mutagenic potential of the compound. The Ames test was done with several strains of bacterium, such as: TA98-S9, TA100-S9, TA1535-59, and TA1537-59.
(In general: The Ames test detects mutagens through reverse mutation in bacteria.)

In data set [4] the test system is panel of 43 cloned human and rodent CNS receptors, channels and transporters. The data set can be described thus: PDSP selectivity panel. In kind it is binding. Conditions: 43 CNS receptors. As to the method:
Compound II-ING-6 also was tested in a panel of 43 cloned human and rodent CNS receptors, channels and transporters using the NIMH sponsored Psychoactive Drug Screening Program (PDSP).

`O=C(NO)c1ccc(CN2C(=O)C(F)(F)c3ccccc32)cc1` [II-ING-66, 4-((3,3-Difluoro-2-oxoindolin-1-yl)methyl)-N-hydroxybenzamide]: the “Neuroprotection from H2O2-induced toxicity” value in data set [1] is given as “Significant neuroprotection”. In addition, in the data set with mouse neuronal N2a cells, the “Protection against MPP+ neurotoxicity” value is given as “significant protection”. For the same compound, in the data set on SH-SY5Y cells, the “Neuroprotection against OGD, pretreatment” value is “neuroprotective” and the “Neuroprotection against OGD, post-treatment” value is listed as “significant neuroprotection only for compound II-ING-6”. The CC50 at 48 h in data set [2] is above 500 µM. For the same compound, in the data set with Nrf2 target genes, the “Hmox-1 expression in the liver” value was “significantly upregulated”; the “Hmox-1 expression in ventral midbrain and striatum” value is reported as “significant increases”; the “NQO1 expression in ventral midbrain and striatum” value was “significant increases”.
As usually defined, the IC50 is the concentration needed to halve the response being measured. As for `O=C(NO)c1ccc(CN2CCc3ccc(Cl)cc32)cc1` [II-ING-6, 4-((6-Chloroindolin-1-yl)methyl)-N-hydroxybenzamide], the IC50 on HDAC7 turned out to be 0.98 µM. For the same compound, the “Neuroprotection from H2O2-induced toxicity” value in data set [1] is reported as “Significant neuroprotection”. The “Protection against MPP+ neurotoxicity” value in the data set with mouse neuronal N2a cells is reported as “significant protection”. Besides, in the data set on SH-SY5Y cells, the “Neuroprotection against OGD, pretreatment” value is recorded as “neuroprotective” and the “Neuroprotection against OGD, post-treatment” value is given as “significant neuroprotection”. Further, the CC50 at 48 h in data set [2] was above 500 µM. In addition, the “Ames test result (mutagenic potential)” value in data set [3] is listed as “Negative”. In addition, the “Activity in PDSP panel” value in data set [4] was “No significant activity”.
Take `Cn1c(NCc2ccc(C(=O)NO)cc2)nc2ccccc21` [II-ING-13, N-Hydroxy-4-(((1-methyl-1H-benzo[d]imidazol-2-yl)amino)methyl)benzamide]: on HDAC7, the IC50 turned out to be 0.55 µM.
Still for that read-out and setting: then `O=C(NO)c1ccc(CN2CCc3ccc(F)cc32)cc1` [II-ING-41, 4-((6-Fluoroindolin-1-yl)methyl)-N-hydroxybenzamide], with 0.46 µM.

For the origin of these results see US10934255B2, “Nrf and HIF activators/HDAC inhibitors and therapeutic methods using the same” (THE BOARD OF TRUSTEES OF THE UNIVERSITY OF ILLINOIS, priority 2017, dated 2021).
